Laboratory results: PubChem BioAssay AID1963982 (Molecular Pharmacology Branch, DTP, NCI, 2024)
“And” between values parts separate entries of the source, which are not always exact repeats. Identical values can stand only once.

Tested on: 313798-341-R-J2-PDC spheroids, viability
Assay: Anticancer human tumor 313798-341-R-J2-PDC patient-derived cervical squamous cell carcinoma cell line growth inhibition [PI3K]
Conditions: spheroids with HUVEC and MSC; for viability, T/C: stronger effect = lower value
Method in brief: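 Combination activity was assessed by viability in multicellular tumor spheroids carrying HUVEC and MSC components. Agents were tested with PI3K inhibitors from a Cmax-based top dose (or 10 microM) downward in half-log increments.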

[1] = curve of first compound, second compound 0.00316 µM
[2] = curve of first compound, second compound 0.01 µM
[3] = curve of first compound, second compound 0.0316 µM
[4] = curve of first compound, second compound 0.1 µM
[5] = curve of first compound, second compound 0.316 µM
[6] = curve of first compound, second compound 1 µM
[7] = second compound 0.00316 µM, first compound 0.0316 µM
[8] = second compound 0.00316 µM, first compound 0.1 µM
[9] = second compound 0.00316 µM, first compound 0.316 µM
[10] = second compound 0.00316 µM, first compound 1 µM
[11] = second compound 0.00316 µM, first compound 3.16 µM
[12] = second compound 0.00316 µM, first compound 10 µM
[13] = second compound 0.01 µM, first compound 0.0316 µM
[14] = second compound 0.01 µM, first compound 0.1 µM
[15] = second compound 0.01 µM, first compound 0.316 µM
[16] = second compound 0.01 µM, first compound 1 µM
[17] = second compound 0.01 µM, first compound 3.16 µM
[18] = second compound 0.01 µM, first compound 10 µM
[19] = second compound 0.0316 µM, first compound 0.0316 µM
[20] = second compound 0.0316 µM, first compound 0.1 µM
[21] = second compound 0.0316 µM, first compound 0.316 µM
[22] = second compound 0.0316 µM, first compound 1 µM
[23] = second compound 0.0316 µM, first compound 3.16 µM
[24] = second compound 0.0316 µM, first compound 10 µM
[25] = second compound 0.1 µM, first compound 0.0316 µM
[26] = second compound 0.1 µM, first compound 0.1 µM
[27] = second compound 0.1 µM, first compound 0.316 µM
[28] = second compound 0.1 µM, first compound 1 µM
[29] = second compound 0.1 µM, first compound 3.16 µM
[30] = second compound 0.1 µM, first compound 10 µM
[31] = second compound 0.316 µM, first compound 0.0316 µM
[32] = second compound 0.316 µM, first compound 0.1 µM
[33] = second compound 0.316 µM, first compound 0.316 µM
[34] = second compound 0.316 µM, first compound 1 µM
[35] = second compound 0.316 µM, first compound 3.16 µM
[36] = second compound 0.316 µM, first compound 10 µM
[37] = second compound 1 µM, first compound 0.0316 µM
[38] = second compound 1 µM, first compound 0.1 µM
[39] = second compound 1 µM, first compound 0.316 µM
[40] = second compound 1 µM, first compound 1 µM
[41] = second compound 1 µM, first compound 3.16 µM
[42] = second compound 1 µM, first compound 10 µM
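Also: spheroids exposed to compounds for seven days.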
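For viability, T/C in this document: 100% = DMSO vehicle control viability.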

`CNC(=O)c1ccc(N2C(=S)N(c3ccc(C#N)c(C(F)(F)F)c3)C(=O)C2(C)C)cc1F` + CC(Nc1ccc2c(c1)OCCn1cc(N3C(=O)OCC3C(F)F)nc1-2)C(N)=O gave an IC50 [1] greater than 10 µM, an IC50 [2] greater than 10 µM and an IC50 [3] greater than 10 µM. For the same molecule, the IC50 [4] was greater than 10 µM, the IC50 [5] was greater than 10 µM and the IC50 [6] was 3.72 µM. The viability, T/C [7] was 99.8%, the viability, T/C [8] was 87% and the viability, T/C [9] was 89.7%. For the same molecule, the viability, T/C [10] was 101%, the viability, T/C [11] was 99.3% and the viability, T/C [12] was 88.2%. For the same molecule, the viability, T/C [13] was 103%, the viability, T/C [14] was 94.8% and the viability, T/C [15] was 97.6%. For the same molecule, the viability, T/C [16] was 91.3%, the viability, T/C [17] was 101% and the viability, T/C [18] was 90%. The viability, T/C [19] was 93.3%, the viability, T/C [20] was 101% and the viability, T/C [21] was 102%. The viability, T/C [22] was 92.8%, the viability, T/C [23] was 97.5% and the viability, T/C [24] was 90.1%. The viability, T/C [25] was 97.7%, the viability, T/C [26] was 92% and the viability, T/C [27] was 91.9%. The viability, T/C [28] was 91.7%, the viability, T/C [29] was 87.5% and the viability, T/C [30] was 77.6%. It also gave a viability, T/C [31] of 82.7%, a viability, T/C [32] of 75.8% and a viability, T/C [33] of 79.7%. It also gave a viability, T/C [34] of 70.2%, a viability, T/C [35] of 62.2% and a viability, T/C [36] of 60.2%. For the same molecule, the viability, T/C [37] was 50.2%, the viability, T/C [38] was 59.6% and the viability, T/C [39] was 53%. The viability, T/C [40] was 51.1%, the viability, T/C [41] was 51.8% and the viability, T/C [42] was 44.7%.
For `C[C@@H](NC(=O)c1ncnc(N)c1Cl)c1ncc(C(=O)Nc2cc(C(F)(F)F)c(Cl)cn2)s1` + COc1c(OCCCN2CCOCC2)ccc2c3n(c(=NC(=O)c4cnc(N)nc4)nc12)CCN3, the IC50 [1] was greater than 10 µM, the IC50 [2] was greater than 10 µM and the IC50 [3] was greater than 10 µM. It also gave an IC50 [4] of 0.0349 µM, an IC50 [5] of less than 0.0316 µM and an IC50 [6] of less than 0.0316 µM. It also gave a viability, T/C [7] of 99.2%, a viability, T/C [8] of 99% and a viability, T/C [9] of 102%. For the same molecule, the viability, T/C [10] was 107%, the viability, T/C [11] was 114% and the viability, T/C [12] was 111%. It also gave a viability, T/C [13] of 92.4%, a viability, T/C [14] of 95.5% and a viability, T/C [15] of 88.2%. It also gave a viability, T/C [16] of 104%, a viability, T/C [17] of 104% and a viability, T/C [18] of 103%. It also gave a viability, T/C [19] of 73.6%, a viability, T/C [20] of 84.1% and a viability, T/C [21] of 84.4%. The viability, T/C [22] was 89.9%, the viability, T/C [23] was 97.2% and the viability, T/C [24] was 96.9%. It also gave a viability, T/C [25] of 54%, a viability, T/C [26] of 45.5% and a viability, T/C [27] of 46.5%. For the same molecule, the viability, T/C [28] was 48%, the viability, T/C [29] was 50.5% and the viability, T/C [30] was 46.4%. For the same molecule, the viability, T/C [31] was 17.9%, the viability, T/C [32] was 20.6% and the viability, T/C [33] was 19.9%. The viability, T/C [34] was 19.6%, the viability, T/C [35] was 23.1% and the viability, T/C [36] was 16.5%. The viability, T/C [37] was 11.7%, the viability, T/C [38] was 12.9% and the viability, T/C [39] was 13.2%. The viability, T/C [40] was 13.3%, the viability, T/C [41] was 14.5% and the viability, T/C [42] was 12.5%.
In the case of `CC(Nc1ccc2c(c1)OCCn1cc(N3C(=O)OCC3C(F)F)nc1-2)C(N)=O` (configuration not stated), the viability, T/C (compound 0.00316 µM) is reported as 96.5% [middle of 8 runs], the viability, T/C (compound 0.01 µM) is reported as 103% [middle of 8 runs] and the viability, T/C (compound 0.0316 µM) is reported as 103% [middle of 8 runs]. For the same molecule, the viability, T/C (compound 0.316 µM) was 76.6% [middle of 8 runs], the viability, T/C (compound 1 µM) was 53.9% [middle of 8 runs] and the IC50 (compound alone, run of 04/24/2023) was 0.523 µM and 0.908 µM and > 1 µM.
In the case of `CC(Nc1ncnc2nc[nH]c12)c1cc2cccc(Cl)c2c(=O)n1-c1ccccc1` (configuration not stated), the viability, T/C (compound 0.0316 µM) is reported as 100% [middle of 8 runs], the viability, T/C (compound 0.1 µM) is reported as 95.1% [middle of 8 runs] and the viability, T/C (compound 0.316 µM) is reported as 99.5% [middle of 8 runs]. For the same molecule, the viability, T/C (compound 1 µM) was 97.6% [middle of 8 runs], the viability, T/C (compound 3.16 µM) was 94.7% [middle of 8 runs] and the viability, T/C (compound 10 µM) was 89.6% [middle of 8 runs]. It also gave an IC50 (compound alone, run of 04/25/2023) greater than 10 µM.
